The values below come from paper PMC11406360, “The enzymatic oxygen sensor cysteamine dioxygenase binds its protein substrates through their N-termini” (The Journal of Biological Chemistry, 2024).

Assay [1] concerns the target T1, ADO (2-aminoethanethiol dioxygenase), iron-bound wild type (Homo sapiens, UniProt Q96SZ5).
T1 construct: Full-length human ADO (UniProt ID: Q96SZ5) was cloned; made in house; host or cells: Rosetta2(DE3) Escherichia coli
T1 sequence (Q96SZ5 1-270): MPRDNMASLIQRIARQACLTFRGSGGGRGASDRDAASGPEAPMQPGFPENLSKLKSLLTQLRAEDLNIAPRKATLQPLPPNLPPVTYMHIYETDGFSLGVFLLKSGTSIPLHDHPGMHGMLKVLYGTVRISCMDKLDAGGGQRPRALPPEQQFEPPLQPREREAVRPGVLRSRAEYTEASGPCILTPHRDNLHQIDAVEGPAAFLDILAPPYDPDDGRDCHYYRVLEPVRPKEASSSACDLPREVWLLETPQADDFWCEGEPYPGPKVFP
The experiment in a line: SPR binding of peptide/protein substrates to immobilised ADO. The settings on record: for Kd: SPR steady state, 1:1 binding model, biotinylated ADO on Biotin CAP chip, 4 °C, 20 mM Hepes pH 7.5, 500 mM NaCl, 10 mM DTT, 0.1% tween-20, geometric mean (± SD) of minimum three independent measurements, read-out: Equilibrium dissociation constant KD. The source says: ADO catalyzes the O2-dependent sulfinylation of Nt-cys residues, which reportedly bind to the iron cofactor in a monodentate arrangement through ligation of the thiol group ([14], [15]). To test the importance of Nt-cys modifications and substitutions on ADO association, a SPR assay was established. […] Data collected under steady state conditions is presented in the main text and kinetic constants are provided in the Tables S1–S8 (alongside steady state measurements). All measurements were collected at 4 °C to minimize enzyme activity.
(§1) SPR measurements were made using a Biacore T200 (Cytiva) instrument and data were analyzed using the Biacore Insight Evaluation Software (Cytiva; https://www.cytivalifesciences.com/en/us/shop/protein-analysis/spr-label-free-analysis/spr-software-and-extensions/biacore-insight-evaluation-software-p-23528). Biotinylated-ADO was immobilized on a Biotin CAP chip (Cytiva) with a target density of ∼2500 to 3000 RU and peptide/protein substrates were injected over the chip. […] A buffer comprising 20 mM Hepes pH 7.5, 500 mM NaCl, 10 mM DTT, and 0.1% (v/v) tween-20 was used as the running buffer at a flow rate of 50 μl/min.
For metal-chelation experiments, a mixture of 10 mM 1, 10-phenanthroline and 100 mM EDTA (pH 8) was injected onto the chip using 10 × 60 s injections at a 100 μl/min flow rate. […] The instrument and chip were primed into buffer excluding reducing agents before conducting metal chelation and iron reconstitution.

Assay [2] addresses T2, ADO-Co^2+ (Homo sapiens, UniProt Q96SZ5).
T2 construct: Full-length human ADO (UniProt ID: Q96SZ5) was cloned; made in house; host or cells: Rosetta2(DE3) Escherichia coli, M9 minimal media with 0.2 mM Co2+ or Zn2+
T2 sequence (Q96SZ5 1-270): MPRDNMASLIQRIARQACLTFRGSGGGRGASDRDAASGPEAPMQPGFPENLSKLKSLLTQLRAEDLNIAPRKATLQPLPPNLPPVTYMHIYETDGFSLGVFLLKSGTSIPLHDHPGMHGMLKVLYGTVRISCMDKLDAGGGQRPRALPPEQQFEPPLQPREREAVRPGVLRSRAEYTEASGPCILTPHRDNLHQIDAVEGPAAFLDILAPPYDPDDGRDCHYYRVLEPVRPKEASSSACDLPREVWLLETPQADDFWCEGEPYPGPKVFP
The experiment in a line: LC-MS turnover time course with cobalt-substituted ADO. It counts as biochemical. The settings on record: 100 μM peptide, 0.1 μM enzyme, 37 °C, attributed to residual iron bound ADO. As to the method:
(§2) The catalytic functionality of the metal substituted ADO proteins was subsequently assessed by LC-MS using RGS5 peptide as a representative protein substrate. […] However, product formation was observed following long incubation times (≥30 min), with ∼80% conversion detected overnight, which is likely attributed to the activity of residual iron bound ADO (Fig. 2, E and H). Together, these findings indicate that different transition metals can substitute iron to facilitate protein substrate binding but not catalysis.
(§3) The enzymatic activity of ADO was examined by incubating between 0 to 1000 μM peptide and protein substrates with 0.05 to 0.1 μM ADO in a bench-top thermomixer at 37 °C for 45 s. Otherwise stated, the reaction buffer contained 50 mM Tris pH 7.5, 50 mM NaCl, and 5 mM TCEP. […]
(§4) Peptide and protein samples were injected onto a Chromolith RP-18 Endcapped HPLC Columns (100–2 mm; Merck) and Discovery BIO Wide Pore C5 HPLC Column (Supelco), respectively, heated to 40 °C and eluted at 0.3 ml/min using a gradient of 95% deionized water supplemented with 0.1% (v/v) formic acid to 95% acetonitrile. Oxidation was monitored by an ultra high-performance liquid chromatography MS using ExionLC AD (Sciex) and SelexION (Sciex) mass spectrometer operated in a positive electrospray TOF (+ESI-TOF) mode. […]

Assay [3] concerns the target T3, ADO-Zn^2+ (Homo sapiens, UniProt Q96SZ5).
T3 construct: Full-length human ADO (UniProt ID: Q96SZ5) was cloned; made in house; host or cells: Rosetta2(DE3) Escherichia coli, M9 minimal media with 0.2 mM Co2+ or Zn2+
T3 sequence (Q96SZ5 1-270): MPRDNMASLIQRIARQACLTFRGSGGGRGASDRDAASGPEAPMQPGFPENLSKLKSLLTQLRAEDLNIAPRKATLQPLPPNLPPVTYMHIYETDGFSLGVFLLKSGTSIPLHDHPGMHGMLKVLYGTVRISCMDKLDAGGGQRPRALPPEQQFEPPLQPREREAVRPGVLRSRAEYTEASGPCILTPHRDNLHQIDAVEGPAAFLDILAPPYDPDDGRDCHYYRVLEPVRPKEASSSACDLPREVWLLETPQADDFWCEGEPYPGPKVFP
The experiment in a line: LC-MS turnover time course with zinc-substituted ADO. It counts as biochemical. The note with it: 100 μM peptide, 0.1 μM enzyme, 37 °C, attributed to residual iron bound ADO. As to the method:
as §2, §3, §4

Assay [4] addresses T3, ADO-Zn^2+. The experiment in a line: SPR binding to zinc-substituted ADO. The settings on record: SPR steady state, 1:1 model, 4 °C; geometric mean of minimum three independent measurements. As to the method: (§5) To study if different metals can compensate for the inherent iron cofactor, zinc (Zn^2+) and cobalt (Co^2+) substituted ADO was produced through minimal media expression, validated by ICP-MS, and analyzed for binding by SPR (Fig. 2E).
as §1

Assay [5] addresses T4, ADO-H193D (Homo sapiens, UniProt Q96SZ5, H193D).
T4 construct: Full-length human ADO (UniProt ID: Q96SZ5) was cloned; made in house; host or cells: Rosetta2(DE3) Escherichia coli
T4 sequence (Q96SZ5 1-270 H193D): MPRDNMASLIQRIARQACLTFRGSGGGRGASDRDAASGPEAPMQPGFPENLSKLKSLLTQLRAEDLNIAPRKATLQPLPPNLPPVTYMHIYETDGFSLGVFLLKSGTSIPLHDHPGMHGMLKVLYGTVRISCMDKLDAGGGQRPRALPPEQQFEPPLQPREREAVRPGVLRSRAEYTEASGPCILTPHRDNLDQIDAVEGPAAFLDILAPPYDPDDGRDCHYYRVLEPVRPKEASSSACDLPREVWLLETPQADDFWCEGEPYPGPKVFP
The assay can be described thus: SPR binding to metal-deficient ADO-H193D mutant. The note with it: 4 °C.
Excerpt: To further validate the importance of metal coordination in protein substrate binding, an ADO-H193D mutant, which is known to impair iron retention, was generated (Fig. S1B). A significant reduction in metal occupancy was confirmed by ICP-MS (Fig. 2C). This correlated with a low SPR-binding response of approximately ∼2 to 3 RU, indicating a reduced population of substrate-binding ADO on the chip relative to the total amount of immobilized ADO (Figs. 2D and S5D). Furthermore, the calculated Kᴅ values with native RGS5 and IL32 peptides were ∼13-fold and ∼77-fold weaker, respectively, than the interactions with WT ADO (Table S3).
as §1

For assay [6], the target named is T5, ADO (Homo sapiens, UniProt Q96SZ5).
T5 construct: Full-length human ADO (UniProt ID: Q96SZ5) was cloned; made in house; host or cells: Rosetta2(DE3) Escherichia coli
T5 sequence (Q96SZ5 1-270): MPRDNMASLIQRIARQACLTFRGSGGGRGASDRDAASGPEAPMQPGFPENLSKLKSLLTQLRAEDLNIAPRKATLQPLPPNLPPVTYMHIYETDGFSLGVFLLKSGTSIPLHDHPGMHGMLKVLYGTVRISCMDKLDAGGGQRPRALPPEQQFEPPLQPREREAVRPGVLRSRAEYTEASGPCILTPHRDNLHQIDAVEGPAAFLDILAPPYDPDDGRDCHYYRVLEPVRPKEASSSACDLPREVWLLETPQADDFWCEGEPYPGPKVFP
The experiment in a line: LC-MS enzyme activity assay (Nt-cys sulfinylation by ADO). The settings on record: 100 μM peptide, 0.1 μM ADO, 37 °C, 45 s and 1 h incubations. The class given is biochemical. As to the method:
[…] Otherwise stated, the reaction buffer contained 50 mM Tris pH 7.5, 50 mM NaCl, and 5 mM TCEP. The reactions were quenched by mixing the sample 1:10 (peptide) or 1:5 (protein) with 1% formic acid (v/v).
Peptide and protein samples were injected onto a Chromolith RP-18 Endcapped HPLC Columns (100–2 mm; Merck) and Discovery BIO Wide Pore C5 HPLC Column (Supelco), respectively, heated to 40 °C and eluted at 0.3 ml/min using a gradient of 95% deionized water supplemented with 0.1% (v/v) formic acid to 95% acetonitrile. Oxidation was monitored by an ultra high-performance liquid chromatography MS using ExionLC AD (Sciex) and SelexION (Sciex) mass spectrometer operated in a positive electrospray TOF (+ESI-TOF) mode. Instrument parameters, data acquisition and data processing were controlled by Analyst software (Sciex; https://sciex.com/products/software/analyst-software). The peptide data processing was performed using Skyline software (MacCoss Lab Software; https://skyline.ms/project/home/software/Skyline/begin.view) ([38]). All figures and parameters were generated using GraphPad Prism 9 (GraphPad; https://www.graphpad.com/features).

The target in assay [7] is T2, ADO-Co^2+. The assay can be described thus: SPR binding (single cycle kinetics) to cobalt-substituted ADO. The settings on record: 4 °C, significantly slower off-rate. As to the method: as §5, §1
Assay [8] addresses T4, ADO-H193D. The assay can be described thus: 15N-HSQC NMR titration with ADO-H193D. The class given is binding. The settings on record: 50 μM 15N-labelled protein, 150 μM ADO-H193D. As to the method:
(§6) For titrations with ADO, ^15N-labeled RGS5^FL proteins were prepared at 50 μM, in buffer containing 20 mM Hepes pH 7.5, 150 mM NaCl, 10 mM DTT, and 10% (v/v) D2O. ^15N-HSQC spectra were collected before and after the addition of ADO to the labeled RGS5^FL samples. Intensity-based CSP plots were produced by calculating peak height values from the ^15N-HSQCs before and after addition of ADO and normalizing against the heights of ∼5 peaks from the HSQC that remained invariant throughout the titration.

Assay [9] concerns the target T5, ADO. The assay can be described thus: 15N-HSQC NMR titration with ADO. It counts as binding. The note with it: 50 μM 15N-labelled protein, 20 mM Hepes pH 7.5, 150 mM NaCl, 10 mM DTT, ADO up to 800 μM. As to the method:
as §6

Where a SMILES comes first, the peptide text is derived from it.

Turning to `CC(C)C[C@H](NC(=O)CNC(=O)[C@H](CCCCN)NC(=O)[C@@H](N)CS)C(=O)N[C@@H](C)C(=O)N[C@@H](C)C(=O)N[C@@H](CC(C)C)C(=O)N1CCC[C@H]1C(=O)N[C@@H](Cc1c[nH]cn1)C(=O)N[C@@H](CO)C(=O)N[C@@H](CS)C(=O)N[C@@H](CC(C)C)C(=O)N[C@@H](CCC(=O)O)C(=O)N[C@@H](CCCNC(=N)N)C(N)=O` [RGS5] (H-CKGLAALPHSCLER-NH2), the Kd in [1] was 290 ± 45 nM; in assay [4] it was 250 ± 370 nM. Also, the “Conversion by ADO-Co^2+ overnight” value in assay [2] is given as about 80%. For the same molecule, the “Conversion by ADO-Zn^2+ overnight” value in assay [3] is recorded as about 80%.

With “H-CFPKVLSDDMKKLK-NH2 (C-terminus assumed) [IL32]”, the “Fold weaker KD with ADO-H193D than with WT ADO” value in assay [5] is given as about 77 fold. For the same molecule, the “Oxidation (sulfinylation, +32 Da) by ADO” value in assay [6] is recorded as “could be oxidized by ADO”. Moreover, the Kd in assay [1] worked out at 270 ± 5 nM. Further, in assay [1] (SPR, ADO prior to chelation treatment), the “Maximum response (Rmax)” value is about 20 RU. For the same molecule, in [1] (SPR, after 10 mM 1,10-phenanthroline and 100 mM EDTA), the “Loss in Rmax following chelation of the immobilized ADO-bound metal” value was about 80%. In addition, the “Fold increase in binding affinity with ADO-Co^2+ relative to native ADO” value in assay [7] is about 10 fold.

B1: RGS5^FL-C2S: full-length RGS5 C2S mutant (protein)
chain: MSKGLAALPHSCLERAKEIKIKLGILLQKPDSVGDLVIPYNEKPEKPAKTQKTSLDEALQWRDSLDKLLQNNYGLASFKSFLKSEFSEENLEFWIACEDYKKIKSPAKMAEKAKQIYEEFIQTEAPKEVNIDHFTKDITMKNLVEPSLSSFDMAQKRIHALMEKDSLPRFVRSEFYQELIK
modifications: left off: His tag, N-terminal, cleaved | SUMO, N-terminal, cleaved
notes: full-length RGS5 C2S mutant
Turning to B1, in assay [8], the “15N-HSQC interaction on titration of ADO-H193D” value is “no interaction was observed”. In addition, the “15N-HSQC chemical shift perturbations on titration of ADO” value in assay [9] is recorded as “induced CSPs in the portion of the ^15N-HSQC corresponding to the disordered N terminus of RGS5”.
